Data reported in PubChem BioAssay (NCI).
Where “and” joins values, the source holds several entries; their conditions need not be identical. Equal values may be shown once.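 Where inhibition never reached the appropriate level, the endpoint shown equals the highest concentration tested. Otherwise, values were interpolated linearly from a five-concentration, 48-hour dose response in 96-well plates. At the GI50, growth is halved. TGI is the concentration that stops growth completely.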

Assays:
Assay in all cases: DTP human tumour cell line panel, 48 h
SK-MEL-28 melanoma = tested on: SK-MEL-28 melanoma
T-47D breast = tested on: T-47D breast
MALME-3M melanoma = tested on: MALME-3M melanoma
MDA-MB-231 breast = tested on: MDA-MB-231 breast
LOX IMVI melanoma = tested on: LOX IMVI melanoma
NCI-H460 lung = tested on: NCI-H460 lung
HOP-62 NSCLC = tested on: HOP-62 NSCLC
DU-145 prostate = tested on: DU-145 prostate
UO-31 renal = tested on: UO-31 renal
NCI-H23 lung = tested on: NCI-H23 lung

SMILES	TGI (SK-MEL-28 melanoma)	TGI (T-47D breast) [µM]	TGI (MALME-3M melanoma)	TGI (MDA-MB-231 breast)	TGI (LOX IMVI melanoma) [µM]	TGI (NCI-H460 lung)	TGI (HOP-62 NSCLC)	TGI (DU-145 prostate)	TGI (UO-31 renal)	TGI (NCI-H23 lung)	GI50 (SK-MEL-28 melanoma) [µM]	GI50 (T-47D breast) [µM]	GI50 (MALME-3M melanoma) [µM]	GI50 (MDA-MB-231 breast) [µM]	GI50 (LOX IMVI melanoma) [µM]	GI50 (NCI-H460 lung) [µM]	GI50 (HOP-62 NSCLC) [µM]	GI50 (DU-145 prostate) [µM]	GI50 (UO-31 renal) [µM]	GI50 (NCI-H23 lung) [µM]
O=C1CCC(c2ccccc2)=NN1c1nc2ccccc2s1	> 100 µM	32.7	95.6 µM	55.9 µM	> 100	> 64.4 µM	> 100 µM	64.6 µM	> 100 µM	> 84.6 µM										
CCn1cc(C(=O)O)c(=O)c2cc(F)c(N3CCN(S(=O)(=O)c4ccc(Cl)cc4Cl)CC3)cc21	13.7 µM	9.71	4.17 µM	4.7 µM	3.08	15.9 µM	9.95 µM	6.75 µM	5.77 µM	5.97 µM	3.22	3.11	1.94	1.88	1.48	3.13	3.08	2.81	2.2	2.33
CC(=O)ON(OCc1ccc2ccccc2c1)C(C)=O	> 100 µM	> 100	> 100 µM	> 100 µM	> 100	> 100 µM	> 100 µM	> 100 µM	> 100 µM	> 100 µM	> 100	> 100	> 100	> 100	85.4	> 100	> 100	> 100	85	> 100
CCCCNc1ncnc2c1cnn2-c1ccccc1	> 100 µM	52.8	> 72.5 µM	73 µM	> 100	> 43.1 µM	> 100 µM	32.1 µM	71.2 µM	> 100 µM	10.1	3.71	6.18	16.9	3.7	1.61	3.42	3.47	7.44	3.34
Clc1ccc2c(NCCNc3nc(N4CCOCC4)nc4ccccc34)ccnc2c1	4.12 µM	8.98	3.89 µM	3.63 µM	3.45	4.16 µM	5.98 µM	17 µM	2.68 µM	17.8 µM	2.1	2.82	1.97	1.56	1.8	2.03	2.25	4.99	1.34	4.08
COc1cccc(C2CC(=O)Nc3c2c(C)nn3-c2nc3ccccc3[nH]2)c1OC (centres undefined)	> 87 µM	50.7	39 µM	8.26 µM	12.9	10.2 µM	7.78 µM	> 89.4 µM	23.6 µM	7.54 µM	9.71	4.02	7.97	2.92	3.65	3.09	2.73	8.68	3.35	2.53
CCSC[C@@H]1C[C@](O)(c2ccccc2)[C@@H](c2ccccc2)O1	> 100 µM	> 100	> 100 µM	> 100 µM	> 100	> 100 µM	> 100 µM	> 100 µM	> 100 µM	> 100 µM	> 100	49	> 100	> 95	> 94.2	> 76.1	> 100	> 100	51.2	79.9
COC(=O)[C@@]12OC[C@]34[C@H]([C@@H](O)[C@@H]1O)[C@@]1(C)CC(=O)C(O)=C(C)[C@@H]1C[C@H]3OC(=O)[C@H](OC(=O)/C=C(\C)C(C)C)[C@@H]24	0.0142 µM and < 0.0339 µM and 0.0317 µM	0.0581	0.00498 µM and 0.0263 µM	0.0822 µM and 0.0757 µM		0.00567 µM and 0.0435 µM	0.0342 µM and < 0.011 µM and 0.0216 µM	0.0451 µM and 0.0293 µM	0.0834 µM and 0.142 µM and 0.405 µM	0.015 µM and 0.0688 µM				0.0228				0.02		
Cc1cc(NC(=O)NCc2ccc(N3C(N)=NC(N)=NC3(C)C)cc2)ccc1S(=O)(=O)F	> 100 µM	> 100	98.5 µM	> 100 µM	> 100	> 75.6 µM	> 100 µM	> 100 µM	> 100 µM	> 100 µM	17.7	15.7	29	> 62.2	0.824	0.252	12.8	1.35	> 100	4.29
O=c1cc(-c2ccccc2)oc2ccc(Cl)cc12	> 78.4 µM	> 100	> 82.4 µM	> 31.6 µM	> 80.1	> 100 µM	> 85.8 µM	> 100 µM	> 88.8 µM	> 100 µM										
COc1cc(-c2nc(-c3ccccc3)c(-c3ccccc3)[nH]2)cc(OC)c1O	31.1 µM	38.7	40.3 µM	34.2 µM	32.6	36.3 µM	47.8 µM	32.1 µM	31 µM	38.7 µM	14.9	13.5	18.8	16.7	17.2	17.3	21.9	17	13.2	19
Clc1ccc(C=Nc2ccc(-c3nc4ccccc4[nH]3)cc2)cc1	> 100 µM	> 100	> 100 µM	> 100 µM	> 100	> 100 µM	> 100 µM	> 100 µM	> 100 µM	> 100 µM	> 100	55.1	> 100	> 100	> 100	> 100	> 100	> 100	> 100	> 100
Nc1ncn([C@H]2CC(O)[C@@H](CO)S2)c(=O)n1 (some centres undefined)	> 100 µM	> 100	> 100 µM	> 100 µM	> 100	> 100 µM	> 100 µM	> 100 µM	> 100 µM	> 100 µM	2.05	> 100	88.6	3.57	4.48	0.685	4.63	2.27	2.93	5.34
C=CCC(N[C@@H](CO)c1ccccc1)c1ccc2ccccc2n1 (some centres undefined)	> 100 µM	> 100	> 100 µM	> 100 µM	> 100		> 100 µM	> 100 µM	> 100 µM	> 100 µM	> 100	61.1	88.6	45.8	> 100		> 100	> 100	88.2	> 100
